This note sets out measurements from patent US10709709B2, “Substituted carbonucleoside derivatives useful as anticancer agents” (Pfizer Inc., priority 2016, dated 2020).

Chain of PRMT5/MEP50 protein complex (O14744 other isoform, or with tags, fused parts or gaps): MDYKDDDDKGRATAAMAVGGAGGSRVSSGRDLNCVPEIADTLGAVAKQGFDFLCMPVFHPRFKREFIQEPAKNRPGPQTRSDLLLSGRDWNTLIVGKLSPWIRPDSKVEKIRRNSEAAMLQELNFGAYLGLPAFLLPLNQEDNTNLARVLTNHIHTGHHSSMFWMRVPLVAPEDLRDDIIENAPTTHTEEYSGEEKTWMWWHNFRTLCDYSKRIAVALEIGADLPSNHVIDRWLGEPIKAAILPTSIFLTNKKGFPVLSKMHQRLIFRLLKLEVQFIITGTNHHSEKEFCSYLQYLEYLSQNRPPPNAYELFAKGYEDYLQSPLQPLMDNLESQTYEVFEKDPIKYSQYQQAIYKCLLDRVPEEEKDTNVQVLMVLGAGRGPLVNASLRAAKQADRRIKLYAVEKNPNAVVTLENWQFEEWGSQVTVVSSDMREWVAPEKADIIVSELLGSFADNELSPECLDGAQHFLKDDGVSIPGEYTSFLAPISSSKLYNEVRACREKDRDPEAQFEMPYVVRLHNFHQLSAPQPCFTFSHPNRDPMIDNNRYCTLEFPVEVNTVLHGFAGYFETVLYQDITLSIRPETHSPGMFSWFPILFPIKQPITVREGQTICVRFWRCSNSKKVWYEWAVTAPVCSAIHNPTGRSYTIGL
Chain of PRMT5/MEP50 protein complex (Q9BQA1 whole entry partner): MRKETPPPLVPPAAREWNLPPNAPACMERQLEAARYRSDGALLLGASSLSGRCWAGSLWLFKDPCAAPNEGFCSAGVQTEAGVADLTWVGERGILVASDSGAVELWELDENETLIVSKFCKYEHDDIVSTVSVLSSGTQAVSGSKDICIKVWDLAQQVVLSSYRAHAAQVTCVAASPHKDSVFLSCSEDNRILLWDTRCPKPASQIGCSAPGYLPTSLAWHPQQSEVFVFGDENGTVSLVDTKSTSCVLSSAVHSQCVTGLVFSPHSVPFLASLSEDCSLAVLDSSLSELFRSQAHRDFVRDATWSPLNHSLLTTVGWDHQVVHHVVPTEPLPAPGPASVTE

For this assay, the target named is PRMT5/MEP50 protein complex (Homo sapiens (Human), UniProt O14744). The assay is described as follows: PRMT5 biochemical assay (3H-SAM methylation of H4(1-21) peptide, filter plate scintillation). The settings on record: 10 nM PRMT5/MEP50 complex, 200 nM H4(1-21) peptide, 1 uM SAM, 25 minute incubation at room temperature. As for the experimental part:
Biochemical Assay Methods
Compounds were solubilized in DMSO and serially diluted, using 3-fold dilutions, into 100% DMSO at a concentration 50-fold greater than the desired assay concentration. Following dilution, 1 ul was added to an empty 96-well microtiter plate. PRMT5/MEP50 protein complex was combined with H4(1-21) peptide ([…]) in PRMT5 assay buffer (50 mM Tris pH 8.5, 50 mM NaCl, 5 mM MgCl2, 1 mM EDTA, 1 mM TCEP) and 44 ul was added to the microtiter plate containing compound. S-Adenosyl-L-methionine (SAM) was prepared by combining ^3H labelled SAM with unlabelled SAM in PRMT5 assay buffer such that the final SAM concentration was 10 uM and the specific activity was 0.2 uCi/ul. The reaction was initiated by adding 5 ul of SAM stock to the microtiter plate. The final reaction conditions were 10 nM PRMT5/MEP50 complex, 200 nM peptide and 1 uM SAM. Following a 25 minute incubation at room temperature, the reaction was stopped with the addition of 100 uL of 20% TCA. The 3H-peptide product was captured using a 96-well filter plate (MSIPN4B, Millipore) and washed 5 times with PBS buffer. Scintillation fluid (100 ul) was added to the dried filter plate and counted in a liquid scintillation counter. IC50 values were determined by fitting the data to the standard 4-parameter dose response equation using Pfizer proprietary software.
Results for the biochemical assay of examples are summarized in Table 1, shown as IC50 values in μM.
On to `Cc1ncnc2c1ccn2[C@@H]1C[C@H](Oc2nc(OC(C)C)c(F)c3c2CNCC3)[C@@H](O)[C@H]1O` [Example 193, (1S,2S,3S,5R)-3-((4-fluoro-3-isopropoxy-5,6,7,8-tetrahydro-2,7-naphthyridin-1-yl)oxy)-5-(4-methyl-7H-pyrrolo[2,3-d]pyrimidin-7-yl)cyclopentane-1,2-diol], for which 180 nM corresponded to half-maximal inhibition (IC50).

For the molecule `Cc1ncnc2c1ccn2[C@@H]1C[C@H](Oc2c(F)cccc2F)[C@@H](O)[C@H]1O` [Example 74, (1S,2S,3S,5R)-3-(2,6-difluorophenoxy)-5-(4-methyl-7H-pyrrolo[2,3-d]pyrimidin-7-yl)cyclopentane-1,2-diol], the IC50 – broadly, the concentration that gives 50% inhibition – came to 63300 nM.

Turning to `Cc1ncnc2c1ccn2[C@@H]1C[C@H](Oc2ccc(F)cc2CN(C)C)[C@@H](O)[C@H]1O` [Example 71, (1S,2S,3S,5R)-3-(2-((dimethylamino)methyl)-4-fluorophenoxy)-5-(4-methyl-7H-pyrrolo[2,3-d]pyrimidin-7-yl)cyclopentane-1,2-diol], the IC50 came out at 69 nM.

`CC(F)(F)c1cc2c(c(O[C@H]3C[C@@H](n4cc(F)c5c(N)ncnc54)[C@H](O)[C@@H]3O)c1)CNCC2` [Example 112, (1S,2S,3R,5S)-3-(4-amino-5-fluoro-7H-pyrrolo[2,3-d]pyrimidin-7-yl)-5-((6-(1,1-difluoroethyl)-1,2,3,4-tetrahydroisoquinolin-8-yl)oxy)cyclopentane-1,2-diol]: the half-inhibitory concentration (IC50) is 4 nM.

Take `Cc1ncnc2c1ccn2[C@@H]1C[C@H]([C@@H](O)c2ccc(Cl)c(F)c2)[C@@H](O)[C@H]1O` [Example 161, (1S,2R,3R,5R)-3-((R)-(4-chloro-3-fluorophenyl)(hydroxy)methyl)-5-(4-methyl-7H-pyrrolo[2,3-d]pyrimidin-7-yl)cyclopentane-1,2-diol]: the IC50 was found to be 201 nM.

For the molecule `Cc1ncnc2c1ccn2[C@@H]1C[C@H](Oc2ccc(Cl)c(Cl)c2CN)[C@@H](O)[C@H]1O` [Example 150, (1S,2S,3S,5R)-3-(2-(aminomethyl)-3,4-dichlorophenoxy)-5-(4-methyl-7H-pyrrolo[2,3-d]pyrimidin-7-yl)cyclopentane-1,2-diol], half-maximal inhibition (IC50) required 71 nM.

Molecule `Cc1ncnc2c1ccn2[C@@H]1C[C@H]([C@H](CN)c2ccc(F)cc2)[C@@H](O)[C@H]1O` [Example 51, (1S,2R,3R,5R)-3-[(1S)-2-amino-1-(4-fluorophenyl)ethyl]-5-(4-methyl-7H-pyrrolo[2,3-d]pyrimidin-7-yl)cyclopentane-1,2-diol] gave an IC50 of 676 nM.

`CN1Cc2cccc(O[C@H]3C[C@@H](n4cc(F)c5c(N)ncnc54)[C@H](O)[C@@H]3O)c2C1` [Example 115, (1S,2S,3R,5S)-3-(4-amino-5-fluoro-7H-pyrrolo[2,3-d]pyrimidin-7-yl)-5-[(2-methyl-2,3-dihydro-1H-isoindol-4-yl)oxy]cyclopentane-1,2-diol] displayed a concentration for half-maximal inhibition (IC50) of 147 nM.

In turn, `Cc1ncnc2c1ccn2[C@@H]1C[C@H]([C@@H](C)O)[C@@H](O)[C@H]1O` [Example 1, (1S,2R,3R,5R)-3-((R)-1-hydroxyethyl)-5-(4-methyl-7H-pyrrolo[2,3-d]pyrimidin-7-yl)cyclopentane-1,2-diol] came in with a 50% inhibitory concentration (IC50) of 510 nM.

Molecule `Cc1cn([C@@H]2C[C@H](Oc3cc(F)c(F)c4c3CNCC4)[C@@H](O)[C@H]2O)c2ncnc(N)c12` [Example 179, (1S,2S,3R,5S)-3-(4-amino-5-methyl-7H-pyrrolo[2,3-d]pyrimidin-7-yl)-5-((5,6-difluoro-1,2,3,4-tetrahydroisoquinolin-8-yl)oxy)cyclopentane-1,2-diol] yielded an IC50 of 1 nM.

Regarding `Cc1ncnc2c1ccn2[C@H]1C[C@@H](Oc2ccccc2CN)[C@H](O)[C@@H]1O` [Example 63, (1R,2R,3R,5S)-3-(2-(aminomethyl)phenoxy)-5-(4-methyl-7H-pyrrolo[2,3-d]pyrimidin-7-yl)cyclopentane-1,2-diol], the IC50 worked out at 1060 nM.
